Experimental data: paper PMC5341070, “Small molecule inhibitors block Gas6-inducible TAM activation and tumorigenicity” (Scientific Reports, 2017)
Where two headings read alike, the source gives them in different places. One block for each compound: values may come before it.

Key:
PDPK1 = PDPK1 (Homo sapiens, UniProt O15530); experiment: biochemical; set-up: KINOMEscan (DiscoverX) competition binding screen of 97 human kinases, percent of control at 10 uM
Method: (§1) The KINOMEscan profiling of the inhibitors were performed as per directions by the manufacturer (DiscoverX) against a panel of human protein kinases.

PIK3CG = PIK3CG (Homo sapiens, UniProt P48736); experiment: biochemical; set-up: KINOMEscan (DiscoverX) competition binding screen of 97 human kinases, percent of control at 10 uM
Method: as §1

RET = RET (Homo sapiens, UniProt P07949); experiment: biochemical; set-up: KINOMEscan (DiscoverX) competition binding screen of 97 human kinases, percent of control at 10 uM
Method: as §1

CDK2 = CDK2 (Homo sapiens, UniProt P24941); experiment: biochemical; set-up: KINOMEscan (DiscoverX) competition binding screen of 97 human kinases, percent of control at 10 uM
Method: as §1

TRKA = target: T1, TRKA (Homo sapiens, UniProt P04629); experiment: biochemical; set-up: KINOMEscan (DiscoverX) competition binding screen of 97 human kinases, percent of control at 10 uM
T1 construct: gene NTRK1
Method: as §1

BTK = BTK (Homo sapiens, UniProt Q06187); experiment: biochemical; set-up: KINOMEscan (DiscoverX) competition binding screen of 97 human kinases, percent of control at 10 uM
Method: as §1

DYRK1B = DYRK1B (Homo sapiens, UniProt Q9Y463); experiment: biochemical; set-up: KINOMEscan (DiscoverX) competition binding screen of 97 human kinases, percent of control at 10 uM; settings: binding competition, % of control
Method: as §1

AKT2 = AKT2 (Homo sapiens, UniProt P31751); experiment: biochemical; set-up: KINOMEscan (DiscoverX) competition binding screen of 97 human kinases, percent of control at 10 uM
Method: as §1

LKB1 = target: T2, LKB1 (Homo sapiens, UniProt Q15831); experiment: biochemical; set-up: KINOMEscan (DiscoverX) competition binding screen of 97 human kinases, percent of control at 10 uM
T2 construct: gene STK11
Method: as §1

EGFR = EGFR (Homo sapiens, UniProt P00533); experiment: biochemical; set-up: KINOMEscan (DiscoverX) competition binding screen of 97 human kinases, percent of control at 10 uM
Method: as §1

ULK2 = ULK2 (Homo sapiens, UniProt Q8IYT8); experiment: biochemical; set-up: KINOMEscan (DiscoverX) competition binding screen of 97 human kinases, percent of control at 10 uM
Method: as §1

PLK3 = PLK3 (Homo sapiens, UniProt Q9H4B4); experiment: biochemical; set-up: KINOMEscan (DiscoverX) competition binding screen of 97 human kinases, percent of control at 10 uM
Method: as §1

MEK2 = target: T3, MEK2 (Homo sapiens, UniProt P36507); experiment: biochemical; set-up: KINOMEscan (DiscoverX) competition binding screen of 97 human kinases, percent of control at 10 uM
T3 construct: gene MAP2K2
Method: as §1

p38-alpha = target: T4, p38-alpha (Homo sapiens, UniProt Q16539); experiment: biochemical; set-up: KINOMEscan (DiscoverX) competition binding screen of 97 human kinases, percent of control at 10 uM
T4 construct: gene MAPK14
Method: as §1

IGF1R = IGF1R (Homo sapiens, UniProt P08069); experiment: biochemical; set-up: KINOMEscan (DiscoverX) competition binding screen of 97 human kinases, percent of control at 10 uM
Method: as §1

ZAP70 = ZAP70 (Homo sapiens, UniProt P43403); experiment: biochemical; set-up: KINOMEscan (DiscoverX) competition binding screen of 97 human kinases, percent of control at 10 uM
Method: as §1

EGFR(L858R) = EGFR(L858R) (Homo sapiens, UniProt P00533, L858R); experiment: biochemical; set-up: KINOMEscan (DiscoverX) competition binding screen of 97 human kinases, percent of control at 10 uM
Method: as §1

IKK-alpha = target: T5, IKK-alpha (Homo sapiens, UniProt O15111); experiment: biochemical; set-up: KINOMEscan (DiscoverX) competition binding screen of 97 human kinases, percent of control at 10 uM
T5 construct: gene CHUK
Method: as §1

MAP3K4 = MAP3K4 (Homo sapiens, UniProt Q9Y6R4); experiment: biochemical; set-up: KINOMEscan (DiscoverX) competition binding screen of 97 human kinases, percent of control at 10 uM
Method: as §1

BRAF = BRAF (Homo sapiens, UniProt P15056); experiment: biochemical; set-up: KINOMEscan (DiscoverX) competition binding screen of 97 human kinases, percent of control at 10 uM
Method: as §1

[1] = target: T6, TYK2(JH1domain-catalytic) (Homo sapiens, UniProt P29597); experiment: biochemical; set-up: KINOMEscan (DiscoverX) competition binding screen of 97 human kinases, percent of control at 10 uM
T6 construct: JH1domain-catalytic
Method: as §1

RAF1 = RAF1 (Homo sapiens, UniProt P04049); experiment: biochemical; set-up: KINOMEscan (DiscoverX) competition binding screen of 97 human kinases, percent of control at 10 uM
Method: as §1

PCTK1 = target: T7, PCTK1 (Homo sapiens, UniProt Q00536); experiment: biochemical; set-up: KINOMEscan (DiscoverX) competition binding screen of 97 human kinases, percent of control at 10 uM
T7 construct: gene CDK16
Method: as §1

Abl = target: T8, Abl (Homo sapiens, UniProt P00519); experiment: KINOMEscan profiling at […]; type: binding
T8 construct: gene ABL1; kinase domain

[2] = read-out: R428 %Ctrl @ 10000nM, binding competition
[3] = binding competition, % of control, read-out: RU-301 %Ctrl @ 10000nM

T7 sequence (Q00536 whole entry): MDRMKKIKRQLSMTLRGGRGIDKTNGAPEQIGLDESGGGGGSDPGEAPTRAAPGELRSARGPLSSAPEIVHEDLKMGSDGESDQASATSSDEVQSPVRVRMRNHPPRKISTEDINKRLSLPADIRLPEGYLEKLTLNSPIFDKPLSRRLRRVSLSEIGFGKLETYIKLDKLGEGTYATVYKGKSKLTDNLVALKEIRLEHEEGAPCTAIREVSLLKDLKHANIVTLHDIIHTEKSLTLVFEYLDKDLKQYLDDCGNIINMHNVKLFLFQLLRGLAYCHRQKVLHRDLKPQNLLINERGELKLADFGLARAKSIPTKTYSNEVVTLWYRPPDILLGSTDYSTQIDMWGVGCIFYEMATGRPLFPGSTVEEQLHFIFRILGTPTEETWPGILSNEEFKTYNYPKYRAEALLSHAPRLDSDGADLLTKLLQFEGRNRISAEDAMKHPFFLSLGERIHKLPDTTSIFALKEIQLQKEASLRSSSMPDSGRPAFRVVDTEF
Chain of BRAF (P15056 whole entry): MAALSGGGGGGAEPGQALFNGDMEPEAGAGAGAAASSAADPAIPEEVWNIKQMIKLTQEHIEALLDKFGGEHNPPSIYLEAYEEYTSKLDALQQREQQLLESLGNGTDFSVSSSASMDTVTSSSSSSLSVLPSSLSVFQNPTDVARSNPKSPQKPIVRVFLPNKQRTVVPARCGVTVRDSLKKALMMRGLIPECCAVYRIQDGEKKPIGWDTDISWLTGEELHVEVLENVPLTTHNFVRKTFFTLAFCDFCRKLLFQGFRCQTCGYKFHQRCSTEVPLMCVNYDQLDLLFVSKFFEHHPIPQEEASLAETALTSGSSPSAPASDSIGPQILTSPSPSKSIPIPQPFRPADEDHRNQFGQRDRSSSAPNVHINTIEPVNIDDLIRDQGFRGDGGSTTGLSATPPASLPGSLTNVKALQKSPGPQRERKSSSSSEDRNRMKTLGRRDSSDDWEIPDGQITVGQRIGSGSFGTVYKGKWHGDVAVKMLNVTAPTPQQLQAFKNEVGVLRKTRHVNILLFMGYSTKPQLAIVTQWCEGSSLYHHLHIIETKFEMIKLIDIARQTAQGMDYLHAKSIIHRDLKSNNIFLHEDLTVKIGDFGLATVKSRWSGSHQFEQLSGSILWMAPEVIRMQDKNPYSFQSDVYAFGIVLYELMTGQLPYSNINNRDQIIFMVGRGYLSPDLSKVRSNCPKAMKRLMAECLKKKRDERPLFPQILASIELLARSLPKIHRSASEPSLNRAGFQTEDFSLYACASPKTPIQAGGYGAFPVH
Chain of RET (P07949 whole entry): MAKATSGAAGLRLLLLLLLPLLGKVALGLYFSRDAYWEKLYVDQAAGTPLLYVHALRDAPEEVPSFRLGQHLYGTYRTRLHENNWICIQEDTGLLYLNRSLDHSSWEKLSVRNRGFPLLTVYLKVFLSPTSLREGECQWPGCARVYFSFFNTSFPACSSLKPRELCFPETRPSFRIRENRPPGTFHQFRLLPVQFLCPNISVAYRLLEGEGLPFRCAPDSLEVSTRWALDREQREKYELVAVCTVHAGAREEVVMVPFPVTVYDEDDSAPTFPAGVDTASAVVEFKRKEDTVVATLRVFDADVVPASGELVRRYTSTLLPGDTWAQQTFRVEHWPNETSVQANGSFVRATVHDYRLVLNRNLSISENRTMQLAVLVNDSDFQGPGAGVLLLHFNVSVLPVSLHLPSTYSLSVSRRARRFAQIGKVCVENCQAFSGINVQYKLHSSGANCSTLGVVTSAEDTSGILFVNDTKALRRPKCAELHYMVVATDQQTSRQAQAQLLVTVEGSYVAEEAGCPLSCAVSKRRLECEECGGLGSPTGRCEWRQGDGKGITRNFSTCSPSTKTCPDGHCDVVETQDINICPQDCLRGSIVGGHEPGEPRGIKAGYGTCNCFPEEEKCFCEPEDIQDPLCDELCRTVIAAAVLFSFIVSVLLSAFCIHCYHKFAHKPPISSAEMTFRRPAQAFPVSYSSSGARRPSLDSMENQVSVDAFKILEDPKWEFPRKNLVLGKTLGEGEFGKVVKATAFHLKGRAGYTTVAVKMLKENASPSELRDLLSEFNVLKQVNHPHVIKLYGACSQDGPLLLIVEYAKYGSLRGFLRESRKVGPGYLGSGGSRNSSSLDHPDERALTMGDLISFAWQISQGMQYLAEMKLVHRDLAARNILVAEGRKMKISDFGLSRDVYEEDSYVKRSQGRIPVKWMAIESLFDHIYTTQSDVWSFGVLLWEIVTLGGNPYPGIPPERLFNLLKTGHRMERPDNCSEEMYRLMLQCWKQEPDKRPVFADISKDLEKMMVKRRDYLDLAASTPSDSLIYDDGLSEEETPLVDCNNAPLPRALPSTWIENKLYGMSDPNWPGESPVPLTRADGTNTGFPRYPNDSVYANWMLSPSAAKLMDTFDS
T1 sequence (P04629 whole entry): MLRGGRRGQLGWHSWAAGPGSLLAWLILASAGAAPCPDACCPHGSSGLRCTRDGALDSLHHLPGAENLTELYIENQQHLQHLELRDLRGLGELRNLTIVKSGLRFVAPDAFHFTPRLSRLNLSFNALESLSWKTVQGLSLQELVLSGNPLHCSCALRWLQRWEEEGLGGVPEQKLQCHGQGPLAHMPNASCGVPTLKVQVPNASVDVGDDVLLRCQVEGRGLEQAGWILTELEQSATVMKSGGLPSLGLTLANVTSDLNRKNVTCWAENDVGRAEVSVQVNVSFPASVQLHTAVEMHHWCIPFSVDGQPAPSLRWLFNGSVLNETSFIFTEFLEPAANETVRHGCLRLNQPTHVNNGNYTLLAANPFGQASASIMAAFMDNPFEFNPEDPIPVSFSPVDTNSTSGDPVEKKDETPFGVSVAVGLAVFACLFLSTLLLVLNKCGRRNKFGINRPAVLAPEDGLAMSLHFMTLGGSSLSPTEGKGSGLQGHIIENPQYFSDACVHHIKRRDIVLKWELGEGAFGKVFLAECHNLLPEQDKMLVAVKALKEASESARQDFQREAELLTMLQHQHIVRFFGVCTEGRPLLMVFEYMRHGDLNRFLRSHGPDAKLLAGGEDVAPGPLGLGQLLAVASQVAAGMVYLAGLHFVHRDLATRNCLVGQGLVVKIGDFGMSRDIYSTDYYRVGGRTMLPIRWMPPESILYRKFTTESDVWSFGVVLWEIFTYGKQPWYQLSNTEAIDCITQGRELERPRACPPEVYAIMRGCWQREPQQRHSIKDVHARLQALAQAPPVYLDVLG
Chain of PDPK1 (O15530 whole entry): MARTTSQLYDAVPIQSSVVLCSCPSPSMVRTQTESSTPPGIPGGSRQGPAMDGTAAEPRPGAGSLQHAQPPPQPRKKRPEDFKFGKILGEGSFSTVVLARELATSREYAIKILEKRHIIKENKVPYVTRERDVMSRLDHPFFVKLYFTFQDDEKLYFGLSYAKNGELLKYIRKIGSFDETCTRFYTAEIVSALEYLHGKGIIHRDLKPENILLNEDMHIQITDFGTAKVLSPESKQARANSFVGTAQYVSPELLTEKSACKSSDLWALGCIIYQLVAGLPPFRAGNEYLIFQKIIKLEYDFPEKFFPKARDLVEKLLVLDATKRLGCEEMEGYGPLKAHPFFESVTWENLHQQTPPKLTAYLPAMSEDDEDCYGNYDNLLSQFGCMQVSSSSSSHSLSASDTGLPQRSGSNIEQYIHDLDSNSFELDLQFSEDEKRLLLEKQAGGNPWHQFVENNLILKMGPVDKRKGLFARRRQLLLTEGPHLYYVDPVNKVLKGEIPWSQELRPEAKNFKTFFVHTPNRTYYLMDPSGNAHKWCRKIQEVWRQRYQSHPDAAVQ
Chain of AKT2 (P31751 whole entry): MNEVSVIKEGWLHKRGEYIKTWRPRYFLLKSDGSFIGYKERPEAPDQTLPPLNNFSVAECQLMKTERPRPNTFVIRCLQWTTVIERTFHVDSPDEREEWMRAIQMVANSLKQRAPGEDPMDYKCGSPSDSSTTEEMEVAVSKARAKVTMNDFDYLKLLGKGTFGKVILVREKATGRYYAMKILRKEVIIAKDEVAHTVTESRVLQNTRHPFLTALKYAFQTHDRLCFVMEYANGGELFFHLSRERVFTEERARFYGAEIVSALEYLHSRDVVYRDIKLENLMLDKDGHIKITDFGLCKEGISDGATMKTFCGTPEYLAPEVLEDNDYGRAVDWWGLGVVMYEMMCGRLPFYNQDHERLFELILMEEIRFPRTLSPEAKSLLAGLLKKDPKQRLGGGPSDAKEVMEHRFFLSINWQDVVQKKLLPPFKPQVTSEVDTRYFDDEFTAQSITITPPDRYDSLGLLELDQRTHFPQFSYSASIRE
Chain of BTK (Q06187 whole entry): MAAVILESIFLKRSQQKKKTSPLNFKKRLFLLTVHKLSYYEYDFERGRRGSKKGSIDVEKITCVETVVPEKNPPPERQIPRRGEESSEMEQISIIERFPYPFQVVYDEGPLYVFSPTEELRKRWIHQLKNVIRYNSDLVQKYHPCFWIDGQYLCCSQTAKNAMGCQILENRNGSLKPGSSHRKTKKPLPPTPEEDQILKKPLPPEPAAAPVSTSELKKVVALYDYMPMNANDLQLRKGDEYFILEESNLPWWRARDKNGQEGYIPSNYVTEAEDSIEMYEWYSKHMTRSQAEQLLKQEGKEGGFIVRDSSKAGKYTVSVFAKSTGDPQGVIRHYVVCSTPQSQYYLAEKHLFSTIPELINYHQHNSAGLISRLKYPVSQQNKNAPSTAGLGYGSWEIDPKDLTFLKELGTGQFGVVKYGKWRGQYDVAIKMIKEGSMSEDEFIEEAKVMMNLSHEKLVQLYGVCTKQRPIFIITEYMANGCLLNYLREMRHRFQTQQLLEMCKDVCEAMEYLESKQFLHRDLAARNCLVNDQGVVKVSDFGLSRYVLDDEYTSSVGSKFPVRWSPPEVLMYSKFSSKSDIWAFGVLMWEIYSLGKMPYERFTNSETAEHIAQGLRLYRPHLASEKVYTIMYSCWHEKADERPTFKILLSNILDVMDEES

percent of control binding at 10 µM (PDPK1; [2]): 34% | percent of control binding at 10 µM (PIK3CG; [2]): 21% | percent of control binding at 10 µM (RET; [2]): 0% | percent of control binding at 10 µM (CDK2; [2]): 71% | percent of control binding at 10 µM (TRKA; [2]): 3.9% | percent of control binding at 10 µM (BTK; [2]): 31% | remaining binding at 10 µM (DYRK1B; read-out: R428 %Ctrl @ 10000nM): 46% | percent of control binding at 10 µM (AKT2; [2]): 100% | percent of control binding at 10 µM (LKB1; [2]): 60% | percent of control binding at 10 µM (EGFR; [2]): 74% | percent of control binding at 10 µM (ULK2; [2]): 1.6% | percent of control binding at 10 µM (PLK3; [2]): 29% | percent of control binding at 10 µM (MEK2; [2]): 0.2% | percent of control binding at 10 µM (p38-alpha; [2]): 78% | percent of control binding at 10 µM (IGF1R; [2]): 99% | percent of control binding at 10 µM (ZAP70; [2]): 33% | percent of control binding at 10 µM (EGFR(L858R); [2]): 10% | percent of control binding at 10 µM (IKK-alpha; [2]): 0.5% | percent of control binding at 10 µM (MAP3K4; [2]): 0.7% | percent of control binding at 10 µM (BRAF; [2]): 64% | percent of control binding at 10 µM [1, 2]: 17% | percent of control binding at 10 µM (RAF1; [2]): 100% | percent of control binding at 10 µM (PCTK1; [2]): 90%
Compound: Nc1nc(Nc2ccc3c(c2)CC[C@@H](N2CCCC2)CC3)nn1-c1cc2c(nn1)-c1ccccc1CCC2 [R428]
KINOMEscan profiling at 10 uM (Abl): R428 also bound to several other kinases, including Abl, Aurora kinases, KIT

remaining binding at 10 µM (PDPK1; [3]): 99% | remaining binding at 10 µM (PIK3CG; [3]): 100% | remaining binding at 10 µM (RET; [3]): 97% | remaining binding at 10 µM (CDK2; [3]): 100% | remaining binding at 10 µM (TRKA; [3]): 100% | remaining binding at 10 µM (BTK; [3]): 100% | remaining binding at 10 µM (DYRK1B; read-out: RU-301 %Ctrl @ 10000nM): 100% | remaining binding at 10 µM (AKT2; [3]): 100% | remaining binding at 10 µM (LKB1; [3]): 77% | remaining binding at 10 µM (EGFR; [3]): 100% | remaining binding at 10 µM (ULK2; [3]): 97% | remaining binding at 10 µM (PLK3; [3]): 91% | remaining binding at 10 µM (MEK2; [3]): 71% | remaining binding at 10 µM (p38-alpha; [3]): 93% | remaining binding at 10 µM (IGF1R; [3]): 98% | remaining binding at 10 µM (ZAP70; [3]): 76% | remaining binding at 10 µM (EGFR(L858R); [3]): 94% | remaining binding at 10 µM (IKK-alpha; [3]): 86% | remaining binding at 10 µM (MAP3K4; [3]): 100% | remaining binding at 10 µM (BRAF; [3]): 99% | remaining binding at 10 µM [1, 3]: 55% | remaining binding at 10 µM (RAF1; [3]): 84% | remaining binding at 10 µM (PCTK1; [3]): 100%
Compound: Cc1cc(CSc2ccccc2C(=O)NCCNc2ccc(C(F)(F)F)cc2[N+](=O)[O-])on1 [RU-301]
